Measurements taken from US20190125745A1, “TREATMENT AND DIAGNOSIS OF CANCER” (Rgenix, Inc., priority 2014, published 2019).
Where a name gives a salt, the structure may show the parent alone.

What was measured:
[1] = tested on: B16F10 mouse melanoma cells; experiment: Subcutaneous B16F10 tumor growth in C57BL/6 mice; assay type: in vivo
Protocol: FIG. 4. Therapeutic LXR Activation Inhibits Melanoma Tumor Growth. […] Representative tumor images shown correspond to tumors extracted at the final day (d12). n=10-18 (A), 8-10 (B). (C-E) Primary tumor growth by 1×10^6 MeWo (C), […] SK-Mel-334.2 (D), and 2×10^6 SK-Mel-2 (E) human melanoma cells subcutaneously injected into immunocompromised mice. […] Tumor images shown correspond to last day of measurements. n=6-34 (C), 8 (D), 5 (E). (F) 5×10^4 B16F10 cells were injected subcutaneously into C57BL/6-WT mice. Upon tumor growth to 150 mm^3, mice were fed continuously with a control chow or a chow containing GW3965 (150 mg/kg), and tumor growth was measured daily. n=6-13. […] Tumor volume was calculated as (small diameter)^2×(large diameter)/2. […] Scale bars, 5 mm (A-D), 50 μm (J, K), 25 μm (L).
The mice were palpated daily for tumor formation and after detection of tumors measuring […] in volume, the mice were assigned to a control chow or a chow containing each respective LXR agonist: LXR-623 (20 mg/kg/day), WO-2007-002563 Ex. 19 (100 mg/kg/day), WO-2010-0138598 Ex. 9 (10 mg/kg/day or 100 mg/kg/day), or SB742881 (100 mg/kg/day). The LXR drug compounds were formulated in the mouse chow by Research Diets, Inc. Tumor dimensions were measured using digital calipers, and tumor volume was calculated as (small diameter)^2×(large diameter)/2.

[2] = tested on: MeWo human melanoma cells; experiment: Tail-vein lung metastatic colonization by MeWo cells in NOD Scid mice; assay type: in vivo; settings: MeWo cells pre-treated 1 μM, 48 hours
Protocol: FIG. 6. LXR Agonism Suppresses Melanoma Metastasis to the Lung and Brain. (A) MeWo cells were pre-treated with DMSO or GW3965 (1 μM) for 48 hours and 4×10^4 cells were intravenously injected via the tail-vein into NOD Scid mice. Lung colonization was monitored by weekly bioluminescence imaging. Representative H&E-stained lungs correspond to the final day (d70) are shown. n=4-5. (B-C) Bioluminescence imaging of lung metastasis by 4×10^4 MeWo cells intravenously injected into NOD Scid mice that were fed a control chow or a chow containing GW3965 (20 mg/kg) or T0901317 (20 mg/kg) starting 10 days prior to cancer cell injection. Representative H&E-stained lungs correspond to final imaging day n=5-6. […] (H) Ex-vivo lung photon flux, determined by bioluminescence imaging, in NOD Scid mice that were administered a control chow or a chow containing GW3965 (100 mg/kg) for 1 month following the excision of size-matched (˜300-mm^3 in volume) subcutaneous melanoma tumors formed by 1×10^6 MeWo melanoma cells. […] Following initiation of metastases, detected by bioluminescence imaging on d42, mice were administered a control diet or a GW3965 diet (100 mg/kg) as indicated, and lung colonization progression was measured weekly. n=6. […]

[3] = tested on: amyloid plaque pathology and memory deficits; settings: oral delivery; cited from earlier work

For O=C(O)Cc1cccc(OCCCN(Cc2cccc(C(F)(F)F)c2Cl)CC(c2ccccc2)c2ccccc2)c1 [GW3965 108, 3-[3-[N-(2-Chloro-3-trifluoromethylbenzyl)-(2,2-diphenylethyl)amino]propyloxy] phenylacetic acid hydrochloride], the “primary tumor growth in vivo (FIG. 4)” value ([1]; mouse, in vivo) was “inhibit”, the “reduction in the growth of established large B16F10 tumors” value ([1]; tumors ~150 mm^3 at start, chow 150 mg/kg) was “roughly 50%” and the “reduction in metastatic colonization capacity after pre-treatment of cells” value [2] was “more than 50 fold”. The “amyloid plaque pathology and memory deficits” value [3] was “improve amyloid plaque pathology and memory deficits”.
